From patent publication US8722616B2, “Anti-HIV peptides and methods of use thereof” (priority 2009, dated 2014)
Converted amounts (≈) assume the structure as drawn. Like-named read-outs stand apart in the source and are kept apart here. No end group written: not given here.

What was measured:
[1] = test system: E. coli K12
From the text: (§1) The frequently used residues identified in each kingdom may be applied to peptide design in different ways. First, new antimicrobial peptides can be designed based on ‘templates derived from naturally occurring antimicrobial peptides’. […] Second, new antimicrobial peptides can be designed by ‘combining database-derived peptide motifs’, consisting of frequently used residues. Using the motifs consisting of only residues Gly, Leu and Lys, a second peptide was designed. […] Third, new peptides can be designed based on ‘amino acid percentages obtained from statistical analysis of antimicrobial peptides’ from a specific kingdom or peptide family. Thus, a third peptide was designed in three steps. (i) The amino acid composition for MULTI-18 was obtained by multiplying the percentage of each residue with the total number of residues (18 here) in the target peptide. […] (iii) Multiple peptides can be obtained by combining the above motifs. Only one peptide was designed by following the amphipathic pattern for helical peptides.

[2] = test system: methicin-resistant Staphylococcus aureus (MRSA) USA-300
From the text: as §1

[3] = test system: HIV-1IIIB; test: microbe, parasite or virus in culture
Method: (§2) Anti-HIV cytopathic effect inhibition assays were conducted as described (Buckheit et al. (1995) Antimicrob. Agents Chemother., 39:2718-2727). In brief, serially diluted peptides were added to a 96-well round bottom microtiter plate in triplicate. CEM-SS cells at a concentration of 2.5×10^3 cells per well and HIV-1IIIB at the appropriate pre-determined titer were sequentially added to the microtiter plate. The cultures were incubated at 5% CO2/37° C. for six days. Following the incubation, the microtiter plates were stained with XTT tetrazolium dye to evaluate the efficacy and toxicity of the test compound(s).
as §2, with “Cytopathic Effect (CPE) Inhibition Assay: The CPE assay was performed” for “Anti-HIV cytopathic effect inhibition assays were conducted”, “as previously” for “as”, “Briefly,” for “In brief,”, “compound was” for “peptides were”

[4] = test system: CEM-SS cells; test: in vitro
Method: as §2
as §2, with “Cytopathic Effect (CPE) Inhibition Assay: The CPE assay was performed” for “Anti-HIV cytopathic effect inhibition assays were conducted”, “as previously” for “as”, “Briefly,” for “In brief,”, “compound was” for “peptides were”

[5] = in vitro; details: human
Method: as §2
as §2, with “Cytopathic Effect (CPE) Inhibition Assay: The CPE assay was performed” for “Anti-HIV cytopathic effect inhibition assays were conducted”, “as previously” for “as”, “Briefly,” for “In brief,”, “compound was” for “peptides were”

[6] = test system: HIV; details: literature; cited from earlier work

For GLKKLLGKLLKKLGKLLLK [GLK-19], which IC50 ([1]; K12) is on record?
Its IC50 is 10 µM.

And the IC50 ([2]; USA-300)?
Its IC50 is 160 µM.

And the EC50 ([3]; 1IIIB)?
Its EC50 is greater than 47.5 µM.

What about the CC50 [4] of the same compound?
Its CC50 is 25.1 µM.

Which results are given for KKLLKKLKKLLK [KL-12]?
inactive against E. coli K12 until [1]: > 160 mM; inactive against MRSA USA-300 until [2]: > 160 mM

Which EC50 ([3]; Human immunodeficiency virus 1) does the source give for `Cc1cn([C@H]2C[C@H](N=[N+]=[N-])[C@@H](CO)O2)c(=O)[nH]c1=O` [AZT, reference compound] here?
The EC50 was 0.007 µM.

And the EC50 ([3]; Human immunodeficiency virus 1, CEM-SS)?
The EC50 was 0.007 µM.

And the CC50 at 6 days [5]?
The CC50 at 6 days was greater than 0.5 µM.

And the CC50 ([4]; human, 6 days)?
Its CC50 is greater than 0.5 µM.

With “indolicidin (ILPWKWPWWPWRR; ends and bridges not checked; UniProt P33046 131-143, looked up) [bovine Trp- and Pro-rich cathelicidin peptide]” as the compound, how does the “concentration required to be effective against HIV” value [6] read?
Its value is 333 µg/mL.

With GRFKRFRKKFKKLFK-NH2 [BMAP-15] as the compound, how does the EC50 ([3]; Table 5, BMAP-27-derived peptides, CEM-SS cells) read?
The EC50 was greater than 49.6 µM.

What about the CC50 at 6 days [5] of the same compound?
Its CC50 at 6 days is greater than 49.6 µM.

With `CC[C@H](C)[C@H](NC(=O)[C@H](CCCNC(=N)N)NC(=O)[C@H](CCC(N)=O)NC(=O)[C@@H](NC(=O)[C@@H](NC(=O)[C@H](CCCNC(=N)N)NC(=O)[C@H](CCCCN)NC(=O)[C@H](Cc1ccccc1)NC(=O)CN)[C@@H](C)CC)C(C)C)C(=O)N[C@@H](CCCCN)C(=O)N[C@@H](CC(=O)O)C(=O)N[C@@H](Cc1ccccc1)C(=O)N[C@@H](CC(C)C)C(=O)N[C@@H](CCCNC(=N)N)C(=O)N[C@@H](CC(N)=O)C(=O)N[C@@H](CC(C)C)C(=O)N[C@H](C(N)=O)C(C)C` [GF-17] as the compound, how does the CC50 at 6 days [5] read?
The CC50 at 6 days was 8.9 µM.

And the CC50 at 144 h ([5]; CEM-SS cells)?
The CC50 at 144 h was 18.7 µg/mL (≈ 8.9 µM).

And the CC50 [4]?
Its CC50 is 10.8 µM.

With GIKEWKRIVQRIKDFLRNLV-NH2 [GI-20W17] as the compound, how does the EC50 ([3]; Table 4, LL-37-derived peptides, CEM-SS cells) read?
Its EC50 is 7.4 µM.

What about the CC50 at 6 days [5] of the same compound?
The CC50 at 6 days was 23.6 µM.
